From article PMC2041813, “Perturbation of the Dimer Interface of Triosephosphate Isomerase and its Effect on Trypanosoma cruzi” (PLoS Neglected Tropical Diseases, 2007)
Where two headings read alike, the source gives them in different places.

Columns and labels:
[1] = target: T1, TIM of T. cruzi (TcTIM) (Trypanosoma cruzi, UniProt P52270); assay: Inhibition of activity of recombinant wild type TcTIM after 2 h incubation; assay type: biochemical
T1 construct: made in house; host or cells: Escherichia coli
T1 sequence (P52270 whole entry): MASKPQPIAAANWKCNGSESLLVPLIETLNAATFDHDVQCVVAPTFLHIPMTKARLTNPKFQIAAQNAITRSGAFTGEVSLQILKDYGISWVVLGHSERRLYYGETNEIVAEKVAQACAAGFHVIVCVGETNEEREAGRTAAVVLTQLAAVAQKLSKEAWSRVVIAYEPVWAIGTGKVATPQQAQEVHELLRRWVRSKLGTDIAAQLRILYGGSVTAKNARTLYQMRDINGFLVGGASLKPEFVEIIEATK
Description: (§1) TcTIM [19] and TIMs from T. brucei, L. mexicana, and Homo sapiens were expressed in Escherichia coli and purified as described in the indicated references. After purification, the enzymes dissolved in 100 mM triethanolamine, 10 mM EDTA and 1 mM dithiothreitol (pH 8) were precipitated with ammonium sulfate (75% saturation) and stored at 4°C. Before use, the enzymes were extensively dialyzed against 100 mM triethanolamine/10 mM EDTA (pH 7.4). Protein was determined from their absorbance at 280 nm. The ε M^−1 cm^−1 was 36440 for TcTIM, and 33460 for TbTIM and LmTIM.
(§2) In all the experiments, a solution of DTDA in dimethylsulfoxide (DMSO) was used. The final DMSO concentration in all experiments was 10% (v/v).
(§3) The indicated TIMs were incubated at pH 7.4 at a concentration of 5 µg per ml of 100 mM triethanolamine, 10 mM EDTA, 10% dimethyl sulfoxide (v/v), and DTDA at the concentrations indicated in the Results section for 2 hours at 36°C. At this time, an aliquot was withdrawn for assay of activity.
(§4) Activity was determined in the direction of glyceraldehyde 3-phosphate to dihydroxyacetone phosphate. The decrease in absorbance at 340 nm was followed in a Hewlett Packard spectrophotometer at 25°C. The reaction mixture (1 ml) contained 100 mM triethanolamine, 10 mM EDTA, 0.2 mM NADH, 1 mM glyceraldehyde 3-phosphate, and 0.9 units α-glycerolphosphate dehydrogenase (pH 7.4). The reaction was started by the addition of TIM, usually 5 ng. The average specific activity of the various preparations of TcTIM used in this work was 2900±200 µmol/min/mg.

[2] = system: rats; design: method as in PMID 4078223; conditions: cited from earlier work
[3] = system: E. coli JM103 cells; assay: Growth of intact E. coli (own TIM) in minimal media; assay type: cell-based, Escherichia coli; conditions: 30 µM, M9 medium, 10% DMSO, absorbance at 600 nm
Description: (§5) E. coli JM103 cells were used as control. E. coli devoid of their endogenous TIM termed VR101 [10] were kindly provided by Dr. Gloria Saab-Rincón; these cells have a kanamicin resistant cassette. […] The strains were grown at 37°C in solid Luria-Bertani medium that had been supplemented with 50 µg of kanamycin and 50 µg of ampicilin per ml. One colony was transferred to M9 medium that had 10% DMSO and 50 µg of each of the latter antibiotics per ml. Growth of the various cells was followed throughout time by measuring the absorbance of the culture at 600 nm.

[4] = target: TbTIM V118C (Trypanosoma brucei brucei, UniProt P04789, V117C); assay: Inhibition of activity of TbTIM V118C mutant; assay type: biochemical
TbTIM V118C, sequence (P04789 whole entry V117C): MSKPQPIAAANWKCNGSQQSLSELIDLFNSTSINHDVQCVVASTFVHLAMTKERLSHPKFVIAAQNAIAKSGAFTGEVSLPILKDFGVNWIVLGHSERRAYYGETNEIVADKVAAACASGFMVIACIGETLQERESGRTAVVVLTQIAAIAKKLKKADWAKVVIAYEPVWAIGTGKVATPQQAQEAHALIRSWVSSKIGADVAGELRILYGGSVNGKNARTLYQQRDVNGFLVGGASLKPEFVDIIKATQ
Description: as §2, §3, §4

[5] = target: T2, TcTIM C15A (Trypanosoma cruzi, UniProt P52270, C15A); assay: Inhibition of activity of TcTIM C15A mutant; assay type: biochemical; conditions: 2 h, 36°C, 10% DMSO, read-out: IC50, concentration of DTDA that induces 50% inhibition
T2 construct: made in house
T2 sequence (P52270 whole entry C15A): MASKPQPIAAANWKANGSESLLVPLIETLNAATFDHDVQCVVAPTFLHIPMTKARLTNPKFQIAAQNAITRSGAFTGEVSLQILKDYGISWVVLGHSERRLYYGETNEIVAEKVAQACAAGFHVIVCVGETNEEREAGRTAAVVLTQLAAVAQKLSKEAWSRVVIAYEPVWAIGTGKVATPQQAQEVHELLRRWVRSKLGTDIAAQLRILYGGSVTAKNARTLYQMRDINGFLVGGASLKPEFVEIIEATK
Description: as §2, §3, §4

[6] = target: T3, TIM from H. sapiens (HTIM) (Homo sapiens, UniProt P60174); assay: Inhibition of activity of human TIM after 2 h incubation; assay type: biochemical
T3 construct: made in house; host or cells: Escherichia coli
T3 sequence (P60174 whole entry): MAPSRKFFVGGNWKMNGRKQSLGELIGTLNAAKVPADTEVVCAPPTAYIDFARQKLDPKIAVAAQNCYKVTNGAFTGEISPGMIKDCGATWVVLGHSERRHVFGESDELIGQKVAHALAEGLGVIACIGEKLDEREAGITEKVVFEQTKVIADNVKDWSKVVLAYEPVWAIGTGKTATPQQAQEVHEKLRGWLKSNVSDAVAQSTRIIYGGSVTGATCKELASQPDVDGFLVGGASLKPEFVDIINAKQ
Description: as §1, §2, §3, §4

[7] = target: T4, TcTIM C127A (Trypanosoma cruzi, UniProt P52270, C127A); assay: Inhibition of activity of TcTIM C127A mutant; assay type: biochemical; conditions: 2 h, 36°C, 10% DMSO, read-out: IC50, concentration of DTDA that induces 50% inhibition
T4 construct: made in house
T4 sequence (P52270 whole entry C127A): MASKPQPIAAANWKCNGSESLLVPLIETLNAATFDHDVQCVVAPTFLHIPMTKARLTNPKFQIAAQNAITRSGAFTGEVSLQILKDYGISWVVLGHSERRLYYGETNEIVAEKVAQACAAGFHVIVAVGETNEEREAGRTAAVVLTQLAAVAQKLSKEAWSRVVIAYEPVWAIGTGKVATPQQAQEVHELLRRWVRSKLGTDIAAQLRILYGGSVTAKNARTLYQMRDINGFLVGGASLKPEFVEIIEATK
Description: as §2, §3, §4

[8] = target: T5, TbTIM (Trypanosoma brucei brucei, UniProt P04789); assay: Inhibition of activity of TbTIM after 2 h incubation; assay type: biochemical
T5 construct: made in house; host or cells: Escherichia coli
T5 sequence (P04789 whole entry): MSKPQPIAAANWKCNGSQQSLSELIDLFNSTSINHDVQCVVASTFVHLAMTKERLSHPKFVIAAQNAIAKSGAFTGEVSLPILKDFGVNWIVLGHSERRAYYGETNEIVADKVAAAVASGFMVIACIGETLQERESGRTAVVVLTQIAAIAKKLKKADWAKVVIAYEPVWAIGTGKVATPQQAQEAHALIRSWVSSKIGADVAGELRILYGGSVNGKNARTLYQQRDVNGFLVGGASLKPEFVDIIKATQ
Description: as §1, §2, §3
as §4, with “The reaction was started by the addition of TIM, usually 5 ng. The average specific activity of the various preparations of TcTIM used in this work was 2900±200 µmol/min/mg.” left out

[9] = target: T6, LmTIM (Leishmania mexicana, UniProt P48499); assay: Inhibition of activity of LmTIM after 2 h incubation; assay type: biochemical
T6 construct: made in house; host or cells: Escherichia coli
T6 sequence (P48499 whole entry): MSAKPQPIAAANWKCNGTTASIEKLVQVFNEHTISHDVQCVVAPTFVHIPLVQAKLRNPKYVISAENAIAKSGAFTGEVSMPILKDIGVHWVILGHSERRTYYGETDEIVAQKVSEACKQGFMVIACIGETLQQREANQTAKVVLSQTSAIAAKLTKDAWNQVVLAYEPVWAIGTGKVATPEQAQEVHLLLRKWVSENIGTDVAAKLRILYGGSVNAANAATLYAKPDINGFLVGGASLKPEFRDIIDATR
Description: as §1, §2, §3, §4

[10] = system: T. cruzi epimastigotes; assay: Culture of T. cruzi epimastigotes, cell number up to 72 hours; assay type: cell-based, Trypanosoma cruzi
Description: Where indicated in the Results section, the media was supplemented with the indicated concentrations of DTDA. The number of cells was recorded at various times for as long as 72 hours.

[11] = system: hemoglobin; design: method as in PMID 4078222; conditions: cited from earlier work
[12] = system: E. coli cells that had TcTIM instead of their own TIM; assay: Growth of E. coli devoid of endogenous TIM transformed with TcTIM; assay type: cell-based, Escherichia coli
Description: as §5

[13] = target: T7, TcTIM C40A (Trypanosoma cruzi, UniProt P52270, C40A); assay: Inhibition of activity of TcTIM C40A mutant; assay type: biochemical; conditions: half-maximal inhibition of the initial phase (biphasic response), read-out: IC50, concentration of DTDA that induces 50% inhibition
T7 construct: made in house
T7 sequence (P52270 whole entry C40A): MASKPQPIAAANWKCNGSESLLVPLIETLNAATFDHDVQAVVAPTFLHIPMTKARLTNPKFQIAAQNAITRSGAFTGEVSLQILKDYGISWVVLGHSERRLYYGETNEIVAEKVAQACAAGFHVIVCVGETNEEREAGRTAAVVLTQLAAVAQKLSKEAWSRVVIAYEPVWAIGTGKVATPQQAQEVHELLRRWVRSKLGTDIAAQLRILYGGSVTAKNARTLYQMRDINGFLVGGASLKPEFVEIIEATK
Description: as §2, §3, §4

[14] = target: T8, TcTIM C118V (Trypanosoma cruzi, UniProt P52270, C118V); assay: Inhibition of activity of TcTIM C118V mutant; assay type: biochemical; conditions: 2 h, 36°C, 10% DMSO, read-out: IC50, concentration of DTDA that induces 50% inhibition
T8 construct: made in house
T8 sequence (P52270 whole entry C118V): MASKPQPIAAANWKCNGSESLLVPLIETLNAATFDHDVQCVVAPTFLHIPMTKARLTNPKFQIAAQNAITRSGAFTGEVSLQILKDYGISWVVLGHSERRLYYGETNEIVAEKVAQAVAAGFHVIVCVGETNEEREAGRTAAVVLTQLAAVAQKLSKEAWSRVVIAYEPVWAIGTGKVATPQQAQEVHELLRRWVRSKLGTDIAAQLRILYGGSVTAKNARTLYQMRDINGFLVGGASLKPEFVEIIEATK
Description: as §2, §3, §4

[15] = system: rodents; design: method as in PMID 7265299; conditions: cited from earlier work
[16] = concentrations as high as 200 µM

Nc1ccccc1SCSc1ccccc1N [2,2′-(methylenebisthioaniline)]
IC50 ([1]; read-out: concentration required to inhibit the activity of TcTIM by 50%): 50000 nM

Nc1ccc(SSc2ccc(N)cc2)cc1 [4,4′-diamino disulfide]
toxic effect on administration to rats [2]: hematological alterations

Nc1ccccc1SSc1ccccc1N [DTDA, 2,2′-dithiodianiline]
effect on growth of E. coli cells that worked with their own TIM [3]: had no effect
IC50 [4]: > 200000 nM
sensitivity of TbTIM V118C mutant activity ([4]; 200 µM): insensitive
IC50 [5]: 346 ± 32 nM
effect on the activity of HTIM ([6]; 10 µM, 2 h, 36°C): did not affect
IC50 ([6]; 2 h, 36°C, 10% DMSO, read-out: concentration for fifty percent inhibition of HTIM activity): 98000 nM
selectivity for TcTIM in reference to HTIM ([6]; ratio of concentrations for 50% inhibition, HTIM vs TcTIM): ~400 times
IC50 [7]: 57 ± 8 nM
effect on the activity of TbTIM ([8]; 10 µM, 2 h, 36°C): did not affect
sensitivity of TbTIM activity [8, 16]: completely insensitive
effect on the activity of LmTIM ([9]; 10 µM, 2 h, 36°C): did not affect
IC50 ([9]; LmTIM, 2 h, 36°C, 10% DMSO, read-out: IC50, concentration of DTDA that induces 50% inhibition): > 200000 nM
sensitivity of LmTIM activity [9, 16]: completely insensitive
effect on growth of T. cruzi epimastigotes ([10]; 4 µM, up to 72 hours): inhibition of growth
effect on survival of T. cruzi parasites in cell cultures ([10]; 10 µM and 15 µM): causes death of parasites
effect on growth of T. cruzi epimastigotes ([10]; 4–8 µM): significant inhibition of the growth
effect on the number of T. cruzi epimastigotes in culture ([10]; concentrations higher than 8 µM, up to 72 hours): significant decrease in the number of cells
effect on hemoglobin [11]: irreversible oxidation of hemoglobin
effect on growth of E. coli cells that relied on the function of TcTIM ([12]; 30 µM, M9 medium, 10% DMSO, absorbance at 600 nm): effectively prevented
effect on the lag that precedes logarithmic growth of TcTIM transformed E. coli ([12]; concentrations as low as 4 µM): important increase in the lag
permeability of biological membranes to the compound ([12]; inferred from the effect on TcTIM transformed E. coli): permeable
IC50 [13]: 1530 ± 450 nM
IC50 ([1]; 2 h, 36°C, 10% DMSO, read-out: concentration that induced 50% inhibition of the activity of TcTIM): 260 nM
IC50 ([1]; TcTIM wild, 5 µg/ml enzyme, 2 h, 36°C, 10% DMSO, read-out: IC50, concentration of DTDA that induces 50% inhibition): 258 ± 35 nM
IC50 [14]: 208 ± 37 nM

diaminodiphenyldisulfide
toxic effect on the kidney [15]: atrophy and hyperplasia in the kidney
toxic effect on the liver [15]: necrotic changes in the liver
